Data on 15 compounds can be found in patent US4335136A, “Anti-inflammatory 4,5-diaryl-α-(polyfluoroalkyl)-1H-pyrrole-2-methanamines” (E. I. Du Pont de Nemours and Company, priority 1981, dated 1982).

In experiment [1] the test system is phenylquinone writhing in mice. The experiment can be described thus: Phenylquinone writhing test. In kind it is in vivo, female white mice. As to conditions: Mus musculus, 0.5 h; fasted female mice, oral; phenylquinone i.p. 24 minutes later; observed for 10 minutes from 30 minutes after dosing; read-out: Analgesic Phenylquinone Writhing ED50. As to the method: PHENYLQUINONE WRITHING TEST
The phenylquinone writhing test, modified from Siegmund, et al., Proc. Soc. Exp. Biol. Med., 95, 729 (1957), was employed. A test compound suspended in 1% methylcellulose was given orally to fasted (17-21 hours) female white mice, 5-20 animals per double blind test. Aqueous (0.01% phenyl-p-benzoquinone) phenylquinone was injected intraperitoneally 24 minutes later using 0.20 ml per mouse. […] The effective analgesic dose for 50% of the mice (ED50) was calculated by the moving average method of Thompson, W. R., Bact. Rev., 11, 115-145 (1947).
In general terms: An intraperitoneal irritant provokes the stretching counted in writhing tests.

For experiment [2], the system named is adjuvant-induced arthritis in rats. The experiment can be described thus: Established Adjuvant-Induced Arthritis in Rats. In kind it is in vivo, Lewis (Wistar) male rats. As to conditions: rat; for ED50: oral gavage once daily for 7 days (days 14-20), paw volume of uninjected left hind paw on day 21, ED50 % estimated by inspection, read-out: Adjuvant Arthritic ED 50; for Percent decrease from control mean paw volume (in parentheses after the ED50 bound): oral once daily for 7 days, presumably at the bounding dose.

As for `NC(c1cc(-c2ccc(F)cc2)c(-c2ccc(F)cc2)n1Cc1ccccc1)(C(F)(F)F)C(F)(F)F` [Example 13], the ED50 in experiment [1] was above 108 mg/kg; in experiment [2] it was above 25 mg/kg. Besides, the “Percent decrease from control mean paw volume (in parentheses after the ED50 bound)” value in experiment [2] (25 mg/kg) was 24%.
In the case of `NC(c1cc(-c2ccc(F)cc2)c(-c2ccc(F)cc2)[nH]1)(C(F)(F)F)C(F)(F)Cl` (stereo not shown) [Example 15], in experiment [2], the ED50 was 0.7 mg/kg.
Turning to `NC(c1cc(-c2ccccc2)c(-c2ccccc2)[nH]1)(C(F)(F)F)C(F)(F)F` [Example 11], the ED50 in experiment [1] is above 108 mg/kg; in experiment [2], 20 mg/kg.
In the case of `NC(c1cc(-c2ccc(Cl)cc2)c(-c2ccc(Cl)cc2)[nH]1)(C(F)(F)F)C(F)(F)F` [Example 10], the ED50 was above 108 mg/kg in experiment [1] and 4.4 mg/kg in experiment [2].
Regarding `Cc1c(C(N)(C(F)(F)F)C(F)(F)F)[nH]c(-c2ccc(F)cc2)c1-c1ccc(F)cc1` [Example 8], the ED50 in experiment [1] is above 108 mg/kg; in experiment [2], 0.77 mg/kg.
In the case of `Cn1c(C(N)(C(F)(F)F)C(F)(F)F)cc(-c2ccc(F)cc2)c1-c1ccc(F)cc1` [Example 3], the ED50 is above 108 mg/kg in experiment [1] and 2.6 mg/kg in experiment [2].
On the same counts, the results for `CNC(c1cc(-c2ccc(F)cc2)c(-c2ccc(F)cc2)[nH]1)(C(F)(F)F)C(F)(F)F` [Example 5, 4,5-Bis(4-fluorophenyl)-N-methyl-α,α-di(trifluoromethyl)-1H-pyrrole-2-methanamine] are above 108 mg/kg and 0.8 mg/kg.
On the same counts, the results for `NC(c1cc(-c2ccc(F)cc2)c(-c2cccnc2)[nH]1)(C(F)(F)F)C(F)(F)F` [Example 12] are above 108 mg/kg and 12.5 mg/kg.
As to `Cc1ccc(-c2cc(C(N)(C(F)(F)F)C(F)(F)F)[nH]c2-c2ccc(C)cc2)cc1` [Example 7], the figures for the ED50 in experiment [1] and in experiment [2] were above 108 mg/kg and above 9 mg/kg, respectively. Also, the “Percent decrease from control mean paw volume (in parentheses after the ED50 bound)” value in experiment [2] (9 mg/kg) is given as 45%.
As to `CN(C)c1ccc(-c2[nH]c(C(N)(C(F)(F)F)C(F)(F)F)cc2-c2ccc(F)cc2)cc1` [Example 9], the results for the ED50 in experiment [1] and in experiment [2] were above 108 mg/kg and 4.9 mg/kg, respectively.
The matching figures for `COc1ccc(-c2cc(C(N)(C(F)(F)F)C(F)(F)F)[nH]c2-c2ccc(OC)cc2)cc1` [Example 4]: 45 mg/kg and 3.3 mg/kg.
On to `NC(c1cc(-c2ccc(F)cc2)c(-c2ccc(F)cc2)[nH]1)(C(F)(F)F)C(F)(F)F` [Example 1, 4,5-Bis(4-fluorophenyl)-α,α-bis(trifluoromethyl)-1H-pyrrole-2-methanamine], for which the ED50 in experiment [1] was 27 mg/kg; in experiment [2] it was 0.45 mg/kg.
Regarding `NC(c1cc(-c2ccc(F)cc2)c(-c2ccc(Br)cc2)[nH]1)(C(F)(F)F)C(F)(F)F` [Example 6], the ED50 in experiment [1] is above 108 mg/kg; in experiment [2], 3.4 mg/kg.
As for `NC(c1cc(-c2ccc(F)cc2)c(-c2ccc(F)cc2)[nH]1)C(F)(F)F` (stereo not drawn) [Example 2, 4,5-Bis(4-fluorophenyl)-α-(trifluoromethyl)-1H-pyrrole-2-methanamine], the ED50 in experiment [2] was above 25 mg/kg. The “Percent decrease from control mean paw volume (in parentheses after the ED50 bound)” value in experiment [2] (25 mg/kg) is 29%.
As for `CNC(c1cc(-c2ccc(F)cc2)c(-c2ccc(F)cc2)n1C)(C(F)(F)F)C(F)(F)F` [Example 14, 4,5-Bis(4-fluorophenyl)-N,1-dimethyl-α,α-di(trifluoromethyl)-1H-pyrrole-2-methanamine], the ED50 was above 108 mg/kg in experiment [1] and 1 mg/kg in experiment [2].
